Patent US9227979B2, “Fluorescent antagonists of the A3 adenosine receptor” (The United States of America, as represented by the …, priority 2012, dated 2016)
Where two headings read alike, the source gives them in different places.

Tests used:
hA2AAR = hA2AAR (Homo sapiens (Human), UniProt P29274); experiment: Radioligand membrane binding assay at hA2A AR ([3H]CGS21680); conditions: for Ki: read-out: A2A Ki
Procedure: (§1) For cell cultures used in radioligand binding assays, after harvest and homogenization, the cells were centrifuged at 200×g for 10 min, and the pellet was re-suspended in 50 mM Tris-HCl buffer (pH 7.5), containing 10 mM MgCl2. The suspension was homogenized with an electric homogenizer for 10 s and was then re-centrifuged at 20,000×g for 20 min at 4° C. The resultant membrane pellets were resuspended in buffer in the presence of 3 units/ml adenosine deaminase, and the suspension was stored at −80° C. until the binding experiments. The protein concentration was measured using the Bradford assay. Radioligand membrane binding assays

hA3AR = hA3AR (Homo sapiens (Human), UniProt P0DMS8); experiment: Radioligand membrane binding assay at hA3AR ([125I]I-AB-MECA); conditions: read-out: A3 Ki
Chain of hA3AR (P0DMS8 whole entry): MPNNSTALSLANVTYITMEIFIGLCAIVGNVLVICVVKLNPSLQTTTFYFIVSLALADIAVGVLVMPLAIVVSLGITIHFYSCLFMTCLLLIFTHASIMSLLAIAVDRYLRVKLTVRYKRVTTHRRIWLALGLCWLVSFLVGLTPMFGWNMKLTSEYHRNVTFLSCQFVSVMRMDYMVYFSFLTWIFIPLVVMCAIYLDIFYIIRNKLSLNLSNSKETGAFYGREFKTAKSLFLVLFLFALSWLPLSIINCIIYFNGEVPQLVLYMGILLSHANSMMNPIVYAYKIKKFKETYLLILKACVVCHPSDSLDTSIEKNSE
Procedure: as §1

hA1 AR = hA1 AR (Homo sapiens (Human), UniProt P30542); experiment: Radioligand membrane binding assay at hA1 AR ([3H]R-PIA); conditions: for Ki: read-out: A1 Ki
Chain of hA1 AR (P30542 whole entry): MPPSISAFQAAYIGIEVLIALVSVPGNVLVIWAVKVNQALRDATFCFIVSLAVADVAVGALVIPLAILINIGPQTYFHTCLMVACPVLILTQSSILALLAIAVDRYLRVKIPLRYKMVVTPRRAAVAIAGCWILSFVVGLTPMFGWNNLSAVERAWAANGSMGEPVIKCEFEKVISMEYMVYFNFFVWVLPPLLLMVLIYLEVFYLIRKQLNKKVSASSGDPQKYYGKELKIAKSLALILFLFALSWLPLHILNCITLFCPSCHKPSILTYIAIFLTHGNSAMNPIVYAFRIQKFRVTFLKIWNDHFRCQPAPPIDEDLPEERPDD
Procedure: as §1

[1] = Table 1, HEK293 cells expressing hA2AAR, [3H]CGS21680
[2] = Table 1, CHO cells expressing hA3AR, [125I]I-AB-MECA
[3] = Table 1, inhibition of radioligand binding at 10 μM
[4] = Table 1, CHO cells expressing hA1AR, agonist radioligand [3H]R-PIA

Chain of hA2AAR (P29274 whole entry): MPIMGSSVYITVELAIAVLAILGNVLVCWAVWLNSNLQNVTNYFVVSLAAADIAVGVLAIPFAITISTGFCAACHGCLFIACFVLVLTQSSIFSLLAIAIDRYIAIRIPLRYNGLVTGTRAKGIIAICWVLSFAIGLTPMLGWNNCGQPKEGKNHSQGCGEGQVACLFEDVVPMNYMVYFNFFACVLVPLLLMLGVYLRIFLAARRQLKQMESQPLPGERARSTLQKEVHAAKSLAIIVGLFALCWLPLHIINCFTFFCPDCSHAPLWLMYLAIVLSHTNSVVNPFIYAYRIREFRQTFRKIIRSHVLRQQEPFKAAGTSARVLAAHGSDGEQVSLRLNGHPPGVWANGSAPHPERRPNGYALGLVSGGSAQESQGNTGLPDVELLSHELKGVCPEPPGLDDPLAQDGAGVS

| Ki (hA2AAR; Table 3) [µM] | Ki (hA3AR; Table 3) [µM] | A1 % inhibition (hA1 AR; Table 3) | Structure (SMILES) | melting point | further results |
| --- | --- | --- | --- | --- | --- |
| 0.0915 ± 0.02 | 0.207 ± 0.095 | 32% ± 6% | Cn1cc2c(nc(NC(=O)Nc3ccc(CC(=O)NCCCOCCOCCOCCCNC(=S)Nc4ccc5c(c4)C(=O)OC54c5ccc(O)cc5Oc5cc(O)ccc54)cc3)n3nc(-c4ccco4)nc23)n1 [Compound 26, N-(1((Fluorescein-5-yl)amino)-1-thioxo-6,9,12-trioxa-2-azapentadecan-15-yl)-2-(4-(3-(2-(furan-2-yl)-8-methyl-8H-pyrazolo[4,3-e][1,2,4]triazolo[1,5-c]pyrimidin-5-yl)ureido)phenyl)acetamide] |  |  |
| 0.133 ± 0.037 | 0.011 ± 0.0006 | 55% ± 4% | C#CCCC(=O)Nc1nc2nn(C)cc2c2nc(-c3ccco3)nn12 [Compound 36, N-(2-(furan-2-yl)-8-methyl-8H-pyrazolo[4,3-e][1,2,4]triazolo[1,5-e]pyrimidin-5-yl)pent-4-ynamide] |  |  |
| 0.151 ± 0.033 | 0.00726 ± 0.00104 |  | C#CCCCCC(=O)Nc1nc2nn(C)cc2c2nc(-c3ccco3)nn12 [Compound 38, N-(2-(furan-2-yl)-8-methyl-8H-pyrazolo[4,3-e][1,2,4]triazolo[1,5-c]pyrimidin-5-yl)hept-6-ynamide] | 208 to 215 °C (dec.) | Ki (hA1 AR; Table 3): 0.891 ± 0.265 µM |
| 0.0957 ± 0.0254 | 0.137 ± 0.028 | 29% ± 1% | Cn1cc2c(nc(NC(=O)Nc3ccc(CC(=O)NCCOCCOCCNC(=S)Nc4ccc5c(c4)C(=O)OC54c5ccc(O)cc5Oc5cc(O)ccc54)cc3)n3nc(-c4ccco4)nc23)n1 [Compound 25, N-(2-(2-(2-(3-(Fluorescein-5-yl)thioureido)ethoxy)ethoxy)ethyl)-2-(4-(3-(2-(furan-2-yl)-8-methyl-8H-pyrazolo[4,3-e][1,2,4]triazolo[1,5-c]pyrimidin-5-yl)ureido)phenyl)acetamide] |  |  |
| 0.482 ± 0.141 | 0.0128 | 62% ± 3% | C#CCCCCCC(=O)Nc1nc2nn(C)cc2c2nc(-c3ccco3)nn12 [Compound 39, N-(2-(furan-2-yl)-8-methyl-8H-pyrazolo[4,3-e][1,2,4]triazolo[1,5-c]pyrimidin-5-yl)oct-7-ynamide] | 204 to 208 °C (dec.) |  |
| 0.199 | 0.00411 ± 0.00093 |  | C#CCCCC(=O)Nc1nc2nn(C)cc2c2nc(-c3ccco3)nn12 [Compound 37, N-(2-(furan-2-yl)-8-methyl-8H-pyrazolo[4,3-e][1,2,4]triazolo[1,5-c]pyrimidin-5-yl)hex-5-ynamide] | 210 to 216 °C (dec.) |  |
| 0.09 | 0.0318 |  | Cn1cc2c(nc(NC(=O)CCCc3cn(CCCCCCNC(=O)c4ccc(-c5c6ccc(=N)c(S(=O)(=O)O)c-6oc6c(S(=O)(=O)O)c(N)ccc56)c(C(=O)O)c4)nn3)n3nc(-c4ccco4)nc23)n1 [MRS5763] |  |  |
| 0.106 ± 0.014 | 0.0967 ± 0.0269 | 21% ± 5% | Cn1cc2c(nc(NC(=O)Nc3ccc(CC(=O)NCCCCCNC(=S)Nc4ccc5c(c4)C(=O)OC54c5ccc(O)cc5Oc5cc(O)ccc54)cc3)n3nc(-c4ccco4)nc23)n1 [Compound 24, N-(5-(3-(Fluorescein-5-yl)thioureido)pentyl)-2-(4-(3-(2-(furan-2-yl)-8-methyl-8H-pyrazolo[4,3-e][1,2,4]triazolo[1,5-c]pyrimidin-5-yl)ureido)phenyl)acetamide] |  |  |

More lines, now with the values behind:

| Structure (SMILES) | Ki (hA2AAR; Table 3) [µM] | Ki (hA3AR; Table 3) [µM] | A1 % inhibition (hA1 AR; Table 3) | melting point | further results |
| --- | --- | --- | --- | --- | --- |
| Cn1cc2c(nc(NCCCNC(=S)Nc3ccc(-c4c5ccc(=O)cc-5oc5cc(O)ccc45)c(C(=O)O)c3)n3nc(-c4ccco4)nc23)n1 [Compound 2] |  |  |  |  | Ki (hA2AAR; [1]): 2.48 ± 0.42 µM; Ki (hA3AR; [2]): 2.39 ± 0.66 µM; A1 % inhibition (hA1 AR; [3]): (5 ± 2%) |
| Cn1cc2c(nc(NC(=O)Nc3ccc(CC(=O)NCCCCNC(=O)OC(C)(C)C)cc3)n3nc(-c4ccco4)nc23)n1 [Compound 13, tert-Butyl (4-(2-(4-(3-(2-(furan-2-yl)-8-methyl-8H-pyrazolo[4,3-e][1,2,4]triazolo[1,5-c]pyrimidin-5-yl)ureido)phenyl)acetamido)butyl)carbamate] | 0.304 ± 0.02 | 0.00346 ± 0.00033 | 2% ± 2% | 186 to 193 °C |  |
| Cn1cc2c(nc(NCCCCCNC(=S)Nc3ccc(-c4c5ccc(=O)cc-5oc5cc(O)ccc45)c(C(=O)O)c3)n3nc(-c4ccco4)nc23)n1 [Compound 4] |  |  |  |  | Ki (hA2AAR; [1]): 1.75 ± 0.47 µM; Ki (hA3AR; [2]): 5.66 ± 0.61 µM; A1 % inhibition (hA1 AR; [3]): (9 ± 5%) |
| Cn1cc2c(nc(NC(=O)Nc3ccc(CC(=O)NCCCCCN)cc3)n3nc(-c4ccco4)nc23)n1.O=C(O)C(F)(F)F [Compound 19, N-(5-aminopentyl)-2-(4-(3-(2-(furan-2-yl)-8-methyl-8H-pyrazolo[4,3-e][1,2,4]triazolo[1,5-c]pyrimidin-5-yl)ureido)phenyl)acetamide trifluoroacetate salt] | 0.203 ± 0.052 | 0.00266 ± 0.00048 | 6% ± 4% | 170 to 178 °C |  |
| Cn1cc2c(nc(NC(=O)Nc3ccc(CC(=O)NCCCOCCOCCOCCCNC(=O)OC(C)(C)C)cc3)n3nc(-c4ccco4)nc23)n1 [Compound 16, tert-Butyl (1-(4-(3-(2-(furan-2-yl)-8-methyl-8H-pyrazolo[4,3-e][1,2,4]triazolo[1,5-c]pyrimidin-5-yl)ureido)phenyl)-2-oxo-7,10,13-trioxa-3-azahexadecan-16-yl)carbamate] | 0.327 ± 0.032 | 0.0824 ± 0.0201 | 11% ± 5% | 151 to 158 °C |  |
| Cn1cc2c(nc(NC(=O)Nc3ccc(CC(=O)NCCCN)cc3)n3nc(-c4ccco4)nc23)n1.O=C(O)C(F)(F)F [Compound 17, N-(3-aminopropyl)-2-(4-(3-(2-(furan-2-yl)-8-methyl-8H-pyrazolo[4,3-e][1,2,4]triazolo[1,5-c]pyrimidin-5-yl)ureido)phenyl)acetamide trifluoroacetate salt] | 0.175 ± 0.027 | 0.00806 ± 0.00247 | 9% ± 3% | 142 to 150 °C |  |
| C#CCCCC(=O)Nc1nc2ccc(Cl)cc2c2nc(-c3ccco3)nn12 [Compound 8, N-(9-Chloro-2-(furan-2-yl)-[1,2,4]triazolo[1,5-c]quinazolin-5-yl)hex-5-ynamide] |  |  |  |  | Ki (hA2AAR; [1]): 0.051 ± 0.01 µM; Ki (hA3AR; [2]): 0.0335 ± 0.0101 µM; Ki (hA1 AR; [4]): 0.17 ± 0.04 µM |
| Cn1cc2c(nc(NC(=O)Nc3ccc(CC(=O)NCCCNC(=S)Nc4ccc5c(c4)C(=O)OC54c5ccc(O)cc5Oc5cc(O)ccc54)cc3)n3nc(-c4ccco4)nc23)n1 [Compound 22, N-(3-(3-(Fluorescein-5-yl)thioureido)propyl)-2-(4-(3-(2-(furan-2-yl)-8-methyl-8H-pyrazolo[4,3-e][1,2,4]triazolo[1,5-c]pyrimidin-5-yl)ureido)phenyl)acetamide] | 0.11 ± 0.018 | 0.104 ± 0.044 | 27% ± 1% |  |  |
| Cn1cc2c(nc(NC(=O)Nc3ccc(CC(=O)NCCCCCNC(=O)OC(C)(C)C)cc3)n3nc(-c4ccco4)nc23)n1 [Compound 14, tert-Butyl (5-(2-(4-(3-(2-(furan-2-yl)-8-methyl-8H-pyrazolo[4,3-e][1,2,4]triazolo[1,5-c]pyrimidin-5-yl)ureido)phenyl)acetamido)pentyl)carbamate] | 0.376 ± 0.096 | 0.00447 ± 0.00106 | 14% ± 3% |  |  |
| Cn1cc2c(nc(NC(=O)Nc3ccc(CC(=O)O)cc3)n3nc(-c4ccco4)nc23)n1 [Compound 11, 2-(4-(3-(2-(furan-2-yl)-8-methyl-8H-pyrazolo[4,3-e][1,2,4]triazolo[1,5-c]pyrimidin-5-yl)ureido)phenyl)acetic acid] | 1.01 | 0.128 ± 0.026 |  |  |  |
| Cn1cc2c(nc(NNC(=S)Nc3ccc(-c4c5ccc(=O)cc-5oc5cc(O)ccc45)c(C(=O)O)c3)n3nc(-c4ccco4)nc23)n1 [Compound 1] |  |  |  |  | Ki (hA2AAR; [1]): 0.92 ± 0.11 µM; Ki (hA3AR; [2]): 0.78 µM; Ki (hA1 AR; [4]): 9.5 µM |
| Cn1cc2c(nc(NC(=O)Nc3ccc(CC(=O)NCCOCCOCCNC(=O)OC(C)(C)C)cc3)n3nc(-c4ccco4)nc23)n1 [Compound 15, tert-Butyl (2-(2-(2-(2-(4-(3-(2-(furan-2-yl)-8-methyl-8H-pyrazolo[4,3-e][1,2,4]triazolo[1,5-c]pyrimidin-5-yl)ureido)phenyl)acetamido)-ethoxy)ethoxy)ethyl)carbamate] | 0.456 ± 0.096 | 0.0748 ± 0.0101 | 7% ± 5% | 157 to 165 °C |  |
| Cn1cc2c(nc(NCCCCNC(=S)Nc3ccc(-c4c5ccc(=O)cc-5oc5cc(O)ccc45)c(C(=O)O)c3)n3nc(-c4ccco4)nc23)n1 [Compound 3] |  |  |  |  | Ki (hA2AAR; [1]): 0.46 ± 0.06 µM; Ki (hA3AR; [2]): 0.72 µM; A1 % inhibition (hA1 AR; [3]): (7 ± 5%) |
| Cn1cc2c(nc(NCCOOCCCCNC(=S)Nc3ccc(-c4c5ccc(=O)cc-5oc5cc(O)ccc45)c(C(=O)O)c3)n3nc(-c4ccco4)nc23)n1 [Compound 5] |  |  |  |  | A2A % Inhibition (hA2AAR; [3]): (30 ± 6%); Ki (hA3AR; [2]): 9.39 ± 1.73 µM; A1 % inhibition (hA1 AR; [3]): (0%) |
| Cn1cc2c(nc(NC(=O)Nc3ccc(CC(=O)NCCCCNC(=S)Nc4ccc5c(c4)C(=O)OC54c5ccc(O)cc5Oc5cc(O)ccc54)cc3)n3nc(-c4ccco4)nc23)n1 [Compound 23, N-(4-(3-(Fluorescein-5-yl)thioureido)butyl)-2-(4-(3-(2-(furan-2-yl)-8-methyl-8H-pyrazolo[4,3-e][1,2,4]triazolo[1,5-c]pyrimidin-5-yl)ureido)phenyl)acetamide] | 0.0604 ± 0.0062 | 0.0736 ± 0.0147 | 28% ± 8% |  |  |
| Cn1cc2c(nc(NCCCOCCOOCCCCCNC(=S)Nc3ccc(-c4c5ccc(=O)cc-5oc5cc(O)ccc45)c(C(=O)O)c3)n3nc(-c4ccco4)nc23)n1 [Compound 6] |  |  |  |  | Ki (hA2AAR; [1]): 6.01 ± 0.42 µM; Ki (hA3AR; [2]): 7.09 ± 0.37 µM; A1 % inhibition (hA1 AR; [3]): (0%) |
